This is an account of results in ChEMBL document CHEMBL4004862, “Discovery of novel CDK8 inhibitors using multiple crystal structures in docking-based virtual screening” (Eur J Med Chem, 2017).

The first assay addresses T1, CDK8/Cyclin C (Homo sapiens) (UniProt P49336+P24863). Briefly: Inhibition of Alexa647 tracer binding to full length recombinant human His-tagged CDK8/Cyclin C expressed in baculovirus expression system at 5 uM preincubated for 20 mins followed by tracer addition measured after 60 mins by TR-FRET based Lanthascreen assay relative to control.
Take `CSc1cccc(NC(=O)NC2CCN(c3ccc(F)cc3)C2=O)c1` (stereo not given): the inhibition was found to be 2%. As for `O=C(Nc1ccc(Cl)cc1)N1CCCC(c2cccc(C(=O)N3CCC4(CC3)OCCO4)c2)C1` (stereo not given), the inhibition is -3%.

`CCC(=O)Nc1nc2cc(NC(=O)c3cc(-c4ccccc4)nc4c(C)cccc34)ccc2s1`: the inhibition turned out to be 0%. In the case of `Cc1ccc(-c2nccc(Nc3cccc(C(=O)NCc4ccc(C(C)C)cc4)c3)n2)cc1`, the inhibition worked out at 2%. Still for that read-out and setting: to `CC(=O)c1cccc(NC(=O)c2nnn(-c3ccc4noc(-c5ccccc5)c4c3)c2C)c1` belongs 80%; to `CCc1ccc(NC(=O)c2c(O)c3ccccc3n(CC)c2=O)cc1`, 46%; to `O=C(Nc1c(C(=O)c2ccccc2)oc2ccccc12)c1cc(-c2ccc3c(c2)OCCO3)on1`, 18%. In the case of `CCn1c(=O)c(=O)n(CC(=O)NCc2ccccc2)c2ccccc21`, the inhibition was -2%. On to `O=C(Nc1ccco1)NC1CCN(c2ncnc3c2CCC3)C1` (stereo not given), for which the inhibition was 15%. Take `Cc1ccc2sc(NNC(=O)c3ccc(S(=O)(=O)CN4CCc5ccccc5C4)cc3)nc2c1C`: the inhibition is 6%. With `CC(=O)c1ccc(NC(=O)COc2cc(-c3ccccc3)nc3ccc(F)cc23)cc1`, the inhibition was 10%. Same read-out and setting: for `Cc1ccc(NC(=O)CCc2nc3ccncc3[nH]2)cc1F` the value was 7%. The same measure, in the same setting: for `Fc1ccc(N2CCN(c3ncnc4sc5c(c34)CCCC5)CC2)cc1` the value was 81%; for `Cc1ccc(-c2nc(C)cc(OCC(=O)Nc3ccc(C#N)cc3)n2)cc1`, -4%; for `CCOC(=O)c1c(C)oc2ncnc(NCCc3ccc(OCC)cc3)c12`, 9%. For the molecule `CCCn1c(=O)oc2cc(NC(=O)Nc3cccc(C)c3)ccc21`, the inhibition worked out at 18%. As to `Cc1oc2ccccc2c1C(=O)CSc1nc(O)c2c(n1)NCN2`, the inhibition is 14%.

As for `CN(C)c1ccc(CNC(=O)C2CCN(c3ccc4nncn4n3)CC2)cc1`, the inhibition is 0%. Turning to `O=C(Cc1ccc(NC(=O)N2CCSc3ncccc32)cc1)NCc1cccc(Cl)c1`, the inhibition came out at 14%. Consider `COc1cc(NC(=O)N2CCN(c3cc(-c4ccc(C)cc4)ncn3)CC2)cc(OC)c1`, for which the inhibition is -6%. Still for that read-out and setting: to `CCOc1ccc(NC(=O)N2CCCC(c3cccc(C(=O)Nc4cccc(Cl)c4)c3)C2)cc1` (stereo not given) belongs 5%; to `Cc1c(C(=O)Nc2ccc3ccc(=O)oc3c2)nnn1-c1ccc2noc(-c3ccccc3)c2c1`, 52%. On the same count and under the same terms, for `Cc1cccc(N2CCN(c3ncnc4onc(C)c34)CC2)c1C` the value was 28%. Still for that read-out and setting: for `O=C(Cc1ccccc1F)Nc1ccc2ncnc(N3CCCC3)c2c1` the value was 14%; for `NNc1cc(N2CCN(c3ccccc3F)CC2)ncn1`, 3%. `Cc1nc(Nc2ccc(NC(=O)Nc3cccc(C(F)(F)F)c3)cc2)cc(N2CCCCC2)n1`: the inhibition turned out to be 97%.

Regarding `COc1ccc(CNC(=O)Cn2cnc3c(C(N)=O)nsc3c2=O)cc1`, the inhibition is 4%. Consider `CC(=O)c1ccc(NC(=O)COc2cc(C(F)(F)F)c3c(C)nn(-c4ccc(C)cc4)c3n2)cc1`, for which the inhibition is -6%. Same read-out and setting: to `O=C1Nc2ccc(F)cc2/C1=N\Nc1ccc(C(=O)N2CCCC2COc2ccc(F)cc2)cc1` (stereo not given) belongs 3%; to `Cc1cc(C)c2c(n1)SCCN2C(=O)Nc1ccc(C(=O)NCc2cccc(Cl)c2)cc1`, 0%. The same measure, in the same setting: for `Cc1ccc(-n2ncc(C(C)(C)C)c2NC(=O)CN(C)C(=O)Nc2ccccc2C)c(C)c1` the value was 13%; for `CNc1nccc(N2CCC(CC(=O)NCc3nc4ccccc4n3C)CC2)n1`, 24%; for `O=C(OCc1cc(=O)n2nc(C3CC3)sc2n1)c1ccc(NC(=O)c2cccc3ccccc23)cc1`, 0%. In the case of `COc1ccc(CC(=O)N2CCN(c3ccc(NC(=O)Nc4cccc(C(F)(F)F)c4)cc3)CC2)cc1`, the inhibition came to 99%. Regarding `O=C(Nc1cccc2ccccc12)c1cccc(C2CSC(S(=O)(=O)N3CCOCC3)C2)c1` (stereo not given), the inhibition was -1%.

`Fc1ccc(-c2noc3ncnc(N4CCN(c5ccccn5)CC4)c23)cc1`: the inhibition came out at 19%. Consider `Cc1noc2ncnc(N3CCC(C(=O)NCCCN4CCOCC4)CC3)c12`, for which the inhibition was determined as 1%. Turning to `CC(=O)N1CCC2(CC1)CC(=O)c1ccc(OCC(=O)Nc3cccc(C(F)(F)F)c3)cc1O2`, the inhibition turned out to be 95%. Same read-out and setting: for `CN1C(=O)c2ccccc2C(C(=O)Nc2ccc(S(=O)(=O)N3CCCCC3)cc2)C1c1cccs1` (stereo not given) the value was -6%; for `O=C(NC1C2CS(=O)(=O)CC2NN1c1ccc(F)cc1)c1ccc(C(=O)c2ccccc2)cc1` (stereo not given), 0%; for `COc1ccc(CNC(=O)C2CCCN(c3cnc4nccnc4c3)C2)cc1` (stereo not given), 3%. Same read-out and setting: for `COc1ccc(OC)c(NC(=O)Nc2ccc(Cn3cnc(-c4nc(-c5ccc(F)cc5)no4)c3)cc2)c1` the value was 1%. With `Cc1ccc(Cl)cc1N1CCN(C(=O)c2noc3ncnc(N4CCCC4)c23)CC1`, the inhibition was found to be 4%.

Turning to `CN[C@@H]1C[C@H]2O[C@@](C)([C@@H]1OC)n1c3ccccc3c3c4c(c5c6ccccc6n2c5c31)C(=O)NC4`, the inhibition worked out at 99%. The same measure, in the same setting: for `COc1cccc(NC(=O)CSc2nc3ccc(NC(=O)Nc4cc(C)cc(C)c4)cc3s2)c1` the value was 20%; for `CCOC(=O)Cc1ccc(NC(=O)Nc2cc3c(cc2N2CCCC2)n(CC)c(=O)n3CC)cc1`, 11%. On to `COc1ccc(-n2nc(C(=O)NCC(=O)N3CCC(Cc4ccccc4)CC3)c3ccccc3c2=O)cc1`, for which the inhibition is 0%. The same measure, in the same setting: for `Cc1ccc(Cl)cc1N1CCN(c2ncnc3sc(C(=O)O)c(C)c23)CC1` the value was 75%; for `CCNc1c(NC(=O)NCc2ccc(C)cc2)c(=O)oc2ccccc12`, -3%. `CCCc1c(C(=O)Nc2ccc(NC(C)=O)cc2)nnn1-c1ccc2noc(-c3ccccc3)c2c1`: the inhibition was 27%. On the same count and under the same terms, for `CCOC(=O)Cc1ccc(NC(=O)NC(C(=O)N2CCc3ccccc32)c2ccccc2)cc1` (stereo not given) the value was 16%; for `CCc1ccc(-n2c(SCc3ccccc3C)nc3[nH]ncc3c2=O)cc1`, 10%. As for `O=C(Nc1ccc2c(c1)OCCO2)c1cccc(Nc2cc(-c3ccc(F)cc3)ncn2)c1`, the inhibition came to 4%. Still for that read-out and setting: for `O=C(NCC1CCN(c2nsc(Cc3ccc(F)cc3)n2)CC1)Nc1ccc(Cl)c(Cl)c1` the value was 101%. Regarding `Cc1ccc(N2Cc3c(ncnc3N3CCCC(C(=O)NCc4cccc(C(F)(F)F)c4)C3)N2)cc1` (stereo not given), the inhibition was -7%.

For `O=C(NC1CCCc2ccccc21)C1CCN(C2=CN3C(C=C2)NNC3c2ccc(Cl)cc2)CC1` (stereo not given), the inhibition was -2%.

For another assay, the target named is T1, CDK8/Cyclin C (Homo sapiens). Briefly: Inhibition of Alexa647 tracer binding to full length recombinant human His-tagged CDK8/Cyclin C expressed in baculovirus expression system at 0.5 uM preincubated for 20 mins followed by tracer addition measured after 60 mins by TR-FRET based Lanthascreen assay relative to control.
Turning to `Cc1nc(Nc2ccc(NC(=O)Nc3cccc(C(F)(F)F)c3)cc2)cc(N2CCCCC2)n1`, the inhibition amounted to 61%. Turning to `COc1ccc(CC(=O)N2CCN(c3ccc(NC(=O)Nc4cccc(C(F)(F)F)c4)cc3)CC2)cc1`, the inhibition is 95%. Still for that read-out and setting: for `CC(=O)N1CCC2(CC1)CC(=O)c1ccc(OCC(=O)Nc3cccc(C(F)(F)F)c3)cc1O2` the value was 69%. On the same count and under the same terms, for `CN[C@@H]1C[C@H]2O[C@@](C)([C@@H]1OC)n1c3ccccc3c3c4c(c5c6ccccc6n2c5c31)C(=O)NC4` the value was 100%; for `O=C(NCC1CCN(c2nsc(Cc3ccc(F)cc3)n2)CC1)Nc1ccc(Cl)c(Cl)c1`, 101%.

The target is the same in another assay. Put plainly: Inhibition of Alexa647 tracer binding to full length recombinant human His-tagged CDK8/Cyclin C expressed in baculovirus expression system at 1 uM preincubated for 20 mins followed by tracer addition measured after 60 mins by TR-FRET based Lanthascreen assay relative to control.
Consider `Cc1nc(Nc2ccc(NC(=O)Nc3cccc(Cl)c3)cc2)cc(N2CCCCC2)n1`, for which the inhibition is 14%. On to `NC(=O)C1CC(=O)N(c2ccc(OCC(=O)Nc3cccc(C(F)(F)F)c3)cc2)C1` (stereo not given), for which the inhibition was 12%. On the same count and under the same terms, to `C=CCNC(=O)C1CC(=O)N(c2ccc(OCC(=O)Nc3cccc(C(F)(F)F)c3)cc2)C1` (stereo not given) belongs 3%; to `O=C(CSc1ccc(N2CCCC(C(=O)NC3CC3)C2)nn1)Nc1cccc(C(F)(F)F)c1` (stereo not given), 5%. On the same count and under the same terms, for `CCNC(=O)c1cn(-c2ccc(SCC(=O)Nc3cccc(C(F)(F)F)c3)nn2)cn1` the value was 16%; for `O=C(Nc1cccc(C(F)(F)F)c1)Nc1nnc(SCc2nc3ccccc3[nH]c2=O)s1`, 100%. The same measure, in the same setting: to `Cc1cc2nc(CSc3ccc(NC(=O)Nc4cccc(C(F)(F)F)c4)cc3)cc(=O)n2o1` belongs 59%; to `Cc1ccc(Nc2cc(Nc3ccc(NC(=O)Nc4cccc(F)c4)cc3)nc(C)n2)cc1`, 5%; to `CCc1nnc(NS(=O)(=O)c2ccc(NC(=O)Nc3ccc(Cl)c(Cl)c3)cc2)s1`, 59%. Regarding `CC(=O)Nc1ccc(NC(=O)Cc2csc(NC(=O)Nc3cccc(Cl)c3)n2)cc1`, the inhibition came to 13%. As for `COc1ccc(C(=O)N2CCCN(c3ccc(NC(=O)Nc4cccc(C(F)(F)F)c4)cn3)CC2)cc1`, the inhibition was found to be 82%. Consider `COc1ccc(C(=O)NCc2nnc(SCC(=O)Nc3cccc(C(F)(F)F)c3)o2)cc1OC`, for which the inhibition came to 4%. The same measure, in the same setting: to `C=CCNC(=O)C1CCN(C(=O)Nc2ccc(NC(=O)Nc3cccc(F)c3)cc2)CC1` belongs 8%. Regarding `O=C(Nc1cccc(Cl)c1)Nc1nnc(CC(=O)N2CCCC2)s1`, the inhibition worked out at 85%.

The target is the same in another assay. Put plainly: Inhibition of Alexa647 tracer binding to full length recombinant human His-tagged CDK8/Cyclin C expressed in baculovirus expression system at 2.5 uM preincubated for 20 mins followed by tracer addition measured after 60 mins by TR-FRET based Lanthascreen assay relative to control.
Regarding `CC(=O)Nc1ccc(NC(=O)c2ccc3noc(-c4ccc(Cl)cc4)c3c2)cc1`, the inhibition is 43%. `CC(=O)Nc1ccc(NC(=O)c2nnn(-c3ccc4noc(-c5ccccc5)c4c3)c2C)cc1`: the inhibition was 59%.

`CC(=O)Nc1ccc(NC(=O)c2nnn(-c3ccc4noc(-c5ccc(Cl)cc5)c4c3)c2C)cc1`: the inhibition turned out to be 4%. With `Cc1c(C(=O)Nc2ccc(-n3cnnn3)cc2)nnn1-c1ccc2noc(-c3ccccc3)c2c1`, the inhibition is -2%. The same measure, in the same setting: to `Cc1c(C(=O)Nc2cccc(C(F)(F)F)c2)nnn1-c1ccc2noc(-c3ccc(Cl)cc3)c2c1` belongs 19%.

For the next assay, the target named is CDK8/Cyclin C (Homo sapiens, UniProt P49336). Put plainly: Inhibition of Alexa647 tracer binding to full length recombinant human His-tagged CDK8/Cyclin C expressed in baculovirus expression system preincubated for 20 mins followed by tracer addition measured after 60 mins by TR-FRET based Lanthascreen assay.
Sequence of CDK8/Cyclin C (P49336 whole entry): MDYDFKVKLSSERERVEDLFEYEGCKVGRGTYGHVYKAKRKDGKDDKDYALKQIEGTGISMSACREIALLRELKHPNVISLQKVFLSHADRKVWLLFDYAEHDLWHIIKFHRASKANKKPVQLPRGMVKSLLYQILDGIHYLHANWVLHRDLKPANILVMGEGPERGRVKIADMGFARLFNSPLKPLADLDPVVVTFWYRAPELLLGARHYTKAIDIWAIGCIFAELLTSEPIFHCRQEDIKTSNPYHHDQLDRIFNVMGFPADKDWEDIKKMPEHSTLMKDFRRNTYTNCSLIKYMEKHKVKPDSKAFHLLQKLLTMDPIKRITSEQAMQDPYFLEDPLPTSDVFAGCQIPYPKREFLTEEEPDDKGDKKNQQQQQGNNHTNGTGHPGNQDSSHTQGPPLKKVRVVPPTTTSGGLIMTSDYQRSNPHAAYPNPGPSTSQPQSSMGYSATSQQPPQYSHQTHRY
Sequence of CDK8/Cyclin C (P24863 whole entry, further chain): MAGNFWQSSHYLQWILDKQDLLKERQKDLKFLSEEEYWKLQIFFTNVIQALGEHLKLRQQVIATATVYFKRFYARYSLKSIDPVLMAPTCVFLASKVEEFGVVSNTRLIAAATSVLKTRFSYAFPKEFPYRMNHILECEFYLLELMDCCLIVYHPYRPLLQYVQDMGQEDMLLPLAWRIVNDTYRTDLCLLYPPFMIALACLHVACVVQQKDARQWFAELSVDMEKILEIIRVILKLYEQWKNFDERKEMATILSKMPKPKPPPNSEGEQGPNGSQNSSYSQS
Consider `CC(=O)c1cccc(NC(=O)c2nnn(-c3ccc4noc(-c5ccccc5)c4c3)c2C)c1`, for which the IC50 was determined as 93 nM. With `O=C(Nc1cccc(C(F)(F)F)c1)Nc1nnc(SCc2nc3ccccc3[nH]c2=O)s1`, the IC50 is 9 nM. `COc1ccc(CC(=O)N2CCN(c3ccc(NC(=O)Nc4cccc(C(F)(F)F)c4)cc3)CC2)cc1`: the IC50 came out at 36 nM.

Take `O=C(NCC1CCN(c2nsc(Cc3ccc(F)cc3)n2)CC1)Nc1ccc(Cl)c(Cl)c1`: the IC50 stood at 6.5 nM. On to `O=C(Nc1cccc(Cl)c1)Nc1nnc(CC(=O)N2CCCC2)s1`, for which the IC50 stood at 183 nM.
